Measured values from ChEMBL document CHEMBL1157502, “Carbaporphyrin ketals as potential agents for a new photodynamic therapy treatment of leishmaniasis” (Bioorg Med Chem, 2008).
Calls of active or inactive are those of the source. The rule behind the calls is not given here.

Columns and labels:
Type in all cases: functional, organism-based
Leishmania tarentolae [1] = experiment: Growth inhibition of Leishmania tarentolae axenic promastigotes after 2 days relative to ethanol
Leishmania tarentolae [2] = experiment: Growth inhibition of Leishmania tarentolae axenic promastigotes upto 40 uM
Leishmania tarentolae [3] = experiment: Growth inhibition of Leishmania tarentolae promastigotes assessed as mitochondrial superoxide production at 5 to 10 uM after 3 hrs by confocal fluorescence microscopy
Leishmania tarentolae [4] = experiment: Growth inhibition of light-illuminated Leishmania tarentolae promastigotes assessed as enhancement of mitochondrial superoxide production at 5 to 10 uM after 3 hrs by confocal fluorescence microscopy
Leishmania tarentolae [5] = experiment: Induction of mitochondrial singlet oxygen production in Leishmania tarentolae promastigotes at 2 uM by confocal fluorescence microscopy

| SMILES | Activity (Leishmania tarentolae [1]) | Activity (Leishmania tarentolae [2]) | Activity (Leishmania tarentolae [3]) | Activity (Leishmania tarentolae [4]) | Activity (Leishmania tarentolae [5]) |
| --- | --- | --- | --- | --- | --- |
| CCC1=C(CC)/C2=C/c3[nH]c(c(C)c3CC)/C=C3/c4ccccc4/C(=C/C4=NC(=C\C1=N2)/C(CC)=C4C)C3(OC)OC | Dose-dependent effect | inactive | Active | Active | Active |
| CCOC1(OCC)/C2=C\C3=NC(=C\C4=NC(=C\c5[nH]c(c(C)c5CC)/C=C\1c1ccccc12)/C(CC)=C4CC)/C(CC)=C3C | Dose-dependent effect | inactive | Active | Active | – |
